Legend:
[1] = target: T1, FLIPK sensor protein (CFP-LAO-YFP) (Salmonella typhimurium, UniProt P02911); experiment: In vitro ligand specificity of FLIPK (FRET ratio with amino acids); format: binding, Salmonella enterica serovar typhimurium LT2; settings: amino acids at 1 and 10 mM, purified FLIPK
T1 construct: The first 22 amino acids (signal peptides) were removed by the help of a SignalP 4.1 server; (His)6 tag (from pRSET-B) (N); made in house; host or cells: E. coli BL21 (DE3), pRSET-B vector
Method: (§1) Specificity of the sensor protein was measured by using five amino acids, arginine, leucine, lysine, ornithine and histidine at three different concentrations i.e. 0, 1.0 and 10 mM, each. FRET measurement was carried out by using a microplate reader. The excitation filter/slit used was 430 nm/20 nm and emission filters/slits for CFP and YFP were 485 nm/20 nm and 535 nm/25 nm, respectively. 180 µl of diluted sensor protein and 20 µl of substrate were taken in different well. Affinity of sensor protein was monitored by using different concentrations of lysine. All analysis was performed in 20 mM PBS buffer (pH 7.5).

[2] = test system: E. coli BL21 (DE3) cells expressing FLIPK; experiment: In vivo FRET measurement in FLIPK-expressing bacterial cell suspension; format: cell-based; settings: for change in FRET ratio of bacterial cell suspension (in vivo specificity): incubation with amino acids for 45 min
Method: In vivo analysis was performed by following the earlier protocols. […] Cultures were incubated in Luria Bertoni broth in baffled Erlenmeyer flasks for 48 h in the dark at 20 °C temperature in shaker incubator and then stored at 4 °C for overnight to ensure the proper folding of the fluorescent proteins. Then starved of nitrogen in M9 medium at 37 °C for 2 h and adjusted to OD600 3.5 and kept in 20 mM PBS buffer solution at pH 7.5. Then 180 µl of cells were dispended in the wells of microplate. 20 μl of 10 mM lysine in nitrogen starved medium grown cells were added and the fluorophores emissions were recorded for 45 min. For monitoring the accumulation rates, the injection module of microplate reader was used. Similar procedure was followed with other amino acids (arginine, ornithine, histidine) to see the specificity of FLIPK.

FLIPK-14 µ = target: T2, FLIPK-14 µ (Salmonella enterica, UniProt P02911, F74A); experiment: In vitro FRET titration of purified CFP-LAO-YFP sensor with lysine in 20 mM PBS buffer pH 7.5, YFP/CFP (535/485 nm) emission ratio in a microplate reader, fitted to a simple binding isotherm.; settings: n = 3
T2 construct: gene argT; LAO without first 22 residues (signal peptide), CFP at N-terminus and YFP at C-terminus, N-terminal (His)6 tag, pRSET-B
T2 sequence (P02911 23-260 F74A): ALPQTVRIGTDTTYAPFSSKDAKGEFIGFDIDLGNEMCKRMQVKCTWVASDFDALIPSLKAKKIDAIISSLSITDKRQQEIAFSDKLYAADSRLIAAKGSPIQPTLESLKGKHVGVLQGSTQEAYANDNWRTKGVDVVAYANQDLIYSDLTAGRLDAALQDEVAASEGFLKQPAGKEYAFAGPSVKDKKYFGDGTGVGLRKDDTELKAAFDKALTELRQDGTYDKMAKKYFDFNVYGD
Method: as §1
(§2) To determine the Kd of the FLIPK sensors, sensor protein was mixed with different concentrations of lysine in 20 mM PBS buffer (pH 7.5) and YFP/CFP ratio was recorded. By using the ratio change on ligand binding, binding constants (Kd) were determined by fitting ligand titration curve in a simple binding isotherm: S=(r-rapo)/(rsat-rapo)=L/Kd+L , where S is saturation; [L] is ligand concentration; r is ratio; rapo is ratio in the absence of ligand and rsat is ratio at saturation with ligand. All analyses were carried out with three independent protein preparations. FRET was used to characterize the sensor protein with various parameters. The FRET ratio was determined as fluorescence intensity at 535 nm (YFP) divided by fluorescence intensity at 485 nm (CFP).

FLIPK-142µ = target: T3, FLIPK-142µ (Salmonella enterica, UniProt P02911, Y36A); experiment: as above; settings: n = 3
T3 construct: gene argT; LAO without first 22 residues (signal peptide), CFP at N-terminus and YFP at C-terminus, N-terminal (His)6 tag, pRSET-B
T3 sequence (P02911 23-260 Y36A): T2 sequence (P02911 23-260 F74A)
Method: as §1, §2

FLIPK-2 m = target: T4, FLIPK-2 m (Salmonella enterica, UniProt P02911, D183I); experiment: as above; settings: n = 3
T4 construct: gene argT; LAO without first 22 residues (signal peptide), CFP at N-terminus and YFP at C-terminus, N-terminal (His)6 tag, pRSET-B
T4 sequence (P02911 23-260 D183I): T2 sequence (P02911 23-260 F74A)
Method: as §1, §2

FLIPK-306µ = target: T5, FLIPK-306µ (Salmonella enterica, UniProt P02911, R99L); experiment: as above; settings: n = 3
T5 construct: gene argT; LAO without first 22 residues (signal peptide), CFP at N-terminus and YFP at C-terminus, N-terminal (His)6 tag, pRSET-B
T5 sequence (P02911 23-260 R99L): T2 sequence (P02911 23-260 F74A)
Method: as §1, §2

FLIPK-30µ = target: T6, FLIPK-30µ (Salmonella enterica, UniProt P02911, S94A); experiment: as above; settings: n = 3
T6 construct: gene argT; LAO without first 22 residues (signal peptide), CFP at N-terminus and YFP at C-terminus, N-terminal (His)6 tag, pRSET-B
T6 sequence (P02911 23-260 S94A): T2 sequence (P02911 23-260 F74A)
Method: as §1, §2

FLIPK-97µ (FLIPK, WT) = target: T7, FLIPK-97µ (FLIPK, WT) (Salmonella enterica, UniProt P02911); experiment: as above; settings: n = 3
T7 construct: gene argT; LAO without first 22 residues (signal peptide), CFP at N-terminus and YFP at C-terminus, N-terminal (His)6 tag, pRSET-B
Method: as §1, §2

[3] = test system: S. cerevisiae/URA3 strain BY4742 expressing FLIPK; experiment: Confocal FRET imaging of lysine uptake in FLIPK-expressing yeast cells; format: cell-based
Method: For expression of FLIPK, S. cerevisiae/URA3 strain BY4742 was used as the eukaryotic host system. The yeast cells were grown and transformed by pYES-DEST-CFP-LAO-YFP vector in which the expression of CFP-LAO-YFP gene was controlled by GAL1 promoter. The transformed yeast cells were grown for 3–5 days in Synthetic Defined (SD)-growth and 1 % galactose as inducer. Imaging of expressed yeast cells were performed on confocal microscope (Leica DMRE) equipped with a confocal head TCS-SPE (Leica, Wetzlar, Germany). The yeast cells were fixed on glass slides by using medical adhesive rinsed with the growth medium and covered by a cover slip. To measure the lysine in yeast cells, dual emission intensity ratio was recorded by using LAS-AF software (Leica, Wetzlar, Germany) with 436 nm/20 nm excitation, two emission filters i.e. 480 nm/40 nm for CFP and 535/30 nm for YFP. For recording the data, FRET sensitized emission tool without background subtraction of the Leica confocal software. The data was further processed by using Adobe Photoshop. Images of single cell and multiple cells were captured by selecting the region of interest (ROI). Similar procedure was followed for the imaging of expressed bacterial cells.

[4] = target: lysine binding periplasmic protein (LAO); parameters: method as in PMID 1400387; settings: read-out: Kd for lysine by equilibrium dialysis; cited from earlier work

N=C(N)NCCC[C@H](N)C(=O)O [arginine]
change in FRET ratio of FLIPK (ligand specificity) [1]: non-significant change in FRET ratio
change in FRET ratio of bacterial cell suspension (in vivo specificity) [2]: did not change the FRET ratio

N[C@@H](Cc1c[nH]cn1)C(=O)O [histidine]
change in FRET ratio of FLIPK (ligand specificity) [1]: non-significant change in FRET ratio
change in FRET ratio of bacterial cell suspension (in vivo specificity) [2]: did not change the FRET ratio

CC(C)C[C@H](N)C(=O)O [leucine]
change in FRET ratio of FLIPK (ligand specificity) [1]: non-significant change in FRET ratio

NCCCC[C@H](N)C(=O)O [lysine, L-lysine]
Kd (FLIPK-14 µ): 14 µM
Kd (FLIPK-142µ): 142 µM
Kd (FLIPK-2 m): 2000 µM
Kd (FLIPK-306µ): 306 µM
Kd (FLIPK-30µ): 30 µM
Kd (FLIPK-97µ (FLIPK, WT)): 97 µM

NCCCC[C@H](N)C(=O)O [lysine]
change in FRET ratio of FLIPK (ligand specificity) [1]: significant increase in the FRET ratio
time after which FRET ratio increased distinctly ([2]; 10 mM lysine added externally): 5 min
time at which FRET ratio of the cell suspensions saturated ([2]; 10 mM lysine added externally, 20 mM PBS buffer): 45 min
time within which uptake of lysine saturated ([2]; at 10 mM): 40 to 45 min
change in FRET ratio of bacterial cell suspension (in vivo specificity) [2]: major change
increase of 535 nm/485 nm emission intensity ratio ([3]; 100 mM extracellular lysine, single yeast cell): 2.0
time up to which 535 nm/485 nm ratio increased before saturation ([3]; after addition of lysine): 255 s
Kd [4]: 0.015 µM

NCCC[C@H](N)C(=O)O [ornithine]
change in FRET ratio of FLIPK (ligand specificity) [1]: non-significant change in FRET ratio
change in FRET ratio of bacterial cell suspension (in vivo specificity) [2]: did not change the FRET ratio
